Laboratory results from patent publication US11465997B2, “Synthesis of disorazoles and analogs thereof as potent anticancer agents” (WILLIAM MARSH RICE UNIVERSITY, priority 2017, dated 2022).
Like-named read-outs stand apart in the source and are kept apart here. Non-standard residues stand in square brackets, D forms with d. Residues, ends and D or L forms follow the SMILES beside them. *: point of attachment. Dolaproine = CO[C@@H]([C@@H]1CCCN1)[C@@H](C)C(=O)O; Dil = CC[C@H](C)[C@H](NC)[C@@H](CC(=O)O)OC; X1 = C[C@@H](N*)[C@@H](O)c1ccccc1; NMeV = CN[C@H](C(=O)O)C(C)C

How the values were obtained:
[1] = tested on: lung cancer cell lines; settings: Jansen et al., 1994 and Elnakady et al., 2004, read-out: IC50 against lung cancer cell line; cited from earlier work
[2] = tested on: ovarian cancer cell lines; settings: Jansen et al., 1994 and Elnakady et al., 2004, read-out: IC50 against ovarian cancer cell line; cited from earlier work
[3] = tested on: prostate cancer cell lines; settings: Jansen et al., 1994 and Elnakady et al., 2004, read-out: IC50 against prostate cancer cell line; cited from earlier work
[4] = tested on: MES SA DX (MES SA cell line with marked multidrug resistance); assay: 72 h killing (cytotoxicity) assay, MES SA DX; type: cell-based, human; settings: MES DX (MES SA DX) cells, multidrug resistant, read-out: Cytotoxic activity IC50
[5] = tested on: MES SA uterine sarcoma cell line; assay: 72 h killing (cytotoxicity) assay, MES SA; type: cell-based, human; settings: MES SA cells, read-out: Cytotoxic activity IC50
[6] = 72 h killing (cytotoxicity) assay, HEK 293T; type: cell-based; settings: human; 293T (HEK 293T) cells; read-out: Cytotoxic activity IC50
[7] = solubility of the product in solvents; type: physicochemical; settings: e.g., MeOH, DMSO, DCM, CHCl3, MeCN
Protocol: To a stirred solution of compound 108 (9.0 mg, 9.0 μmol, 1.0 equiv) in DMF (300 μL) and H2O (2.3 μl, 130 μmol, 14 equiv) was added TASF (12 mg, 45 μmol, 5.0 equiv) and the reaction mixture was heated at 40° C. and stirred for 48 h. The resulting mixture was filtered through a small silica pad (10 cm, SiO2, hexanes:EtOAc 1:1→0:1). The resulting fractions containing the desired products were combined, concentrated and purified by flash column chromatography (SiO2, hexanes:EtOAc 1:1→1:4→0:1) to yield bis-(cp-thiazolyl)-disorazole B1 (7, 3.0 mg, 4.2 μmol, 46% yield) as a white foam. […] 86: Rf=0.15 (hexanes:EtOAc, 2:3); IR (film): vmax=3439, 2922, 2852, 1714, 1629, 1212, 1104, 964 cm^−1; ^1H NMR (600 MHz, DMSO-d6 with DCM) δ 8.37 (s, 2H), 6.45-6.37 (m, 2H), 6.21 (d, J=11.9 Hz, 2H), 6.15 (t, J=11.8 Hz, 2H), 5.66 (dd, J=14.1, 11.0 Hz, 2H), 5.60-5.49 (m, 4H), 5.39-5.31 (m, 2H), 5.23-5.11 (m, 4H), 4.64 (d, J=4.6 Hz, 2H), 3.73 (t, J=5.3 Hz, 2H), 2.70 (q, J=12.0 Hz, 2H), 2.29-2.22 (m, 2H), 2.22-2.13 (m, 2H), 1.82-1.73 (m, 2H), 1.64 (d, J=4.9 Hz, 6H), 0.96 (s, 6H), 0.88 (s, 6H), 0.60 (dd, J=10.4, 4.9 Hz, 4H) ppm; ^13C NMR (151 MHz, DMSO-d6 with DCM) δ 163.45, 159.37, 145.61, 142.90, 133.36, 131.70, 131.53, 127.55, 126.37, 125.78, 123.99, 118.18, 76.27, 75.30, 41.33, 27.65, 23.24, 19.05, 19.03, 18.95, 17.63, 16.64. ppm; HR-MS (ESI-TOF): calcd for C44H54O6N2S2Na^+ [M+Na]^+: 793.3316. […]

C/C=C/[C@H](O)C(C)(C)[C@@H]1C\C=C/C=C\C=C\[C@H](OC)Cc2nc(co2)C(=O)O[C@H](C(C)(C)[C@@H](O)/C=C/C)C/C=C\[C@H]2O[C@H]2/C=C/C=C\c2nc(co2)C(=O)O1 [Disorazole A1, (2Z,4E,6S,8R,9Z,12S,20R,21E,23Z,25Z,28S)-12,28-Bis[(3S,4E)-3-hydroxy-2-methylhex-4-en-2-yl]-20-methoxy-7,13,17,29,33-pentaoxa-34,35-diazatetracyclo[29.2.1.1^15,18.0^6,8]pentatriaconta-1 (34),2,4,9,15,18 (35),21,23,25,31-decaene-14,30-dione]
IC50 [1]: 0.0023 nM
IC50 [2]: 0.0049 nM
IC50 [3]: 0.0071 nM

CC[C@H](C)[C@@H]([C@@H](CC(=O)N1CCC[C@H]1[C@H](OC)[C@@H](C)C(=O)N[C@H](C)[C@@H](O)c1ccccc1)OC)N(C)C(=O)[C@@H](NC(=O)[C@@H](NC)C(C)C)C(C)C [MMAE, monomethyl auristatin E] (H-[NMeV]V[Dil][Dolaproine]-X1)
IC50 [4]: 106 nM
IC50 [5]: 0.51 nM

C/C=C/[C@H](O)C(C)(C)[C@@H]1C\C=C/C=C\C=C\[C@H](OC)Cc2nc(co2)C(=O)O[C@H](C(C)(C)[C@@H](O)/C=C/C)C/C=C\[C@H]2C[C@H]2/C=C/C=C\c2nc(co2)C(=O)O1 [compound 5, (2Z,4E,6S,8R,9Z,12S,20R,21E,23Z,25Z,28S)-12,28-Bis[(3S,4E)-3-hydroxy-2-methylhex-4-en-2-yl]-20-methoxy-13,17,29,33-tetraoxa-34,35-diazatetracyclo[29.2.1.1^15,18.0^6,8]pentatriaconta-1 (34),2,4,9,15,18 (35),21,23,25,31-decaene-14,30-dione]
IC50 ([4]; Homo sapiens): 0.47 nM
IC50 ([5]; Homo sapiens): 0.11 nM
IC50 at 72 h [6]: 0.06 nM

C/C=C/[C@H](O)C(C)(C)[C@@H]1C/C=C\[C@H]2C[C@H]2/C=C/C=C\c2nc(cs2)C(=O)O[C@H](C(C)(C)[C@@H](O)/C=C/C)C/C=C\[C@H]2C[C@H]2/C=C/C=C\c2nc(cs2)C(=O)O1 [compound 86, (2Z,4E,6S,8R,9Z,12S,19Z,21E,23S,25R,26Z,29S)-12,29-Bis[(3S,4E)-3-hydroxy-2-methylhex-4-en-2-yl]-13,30-dioxa-17,34-dithia-35,36-diazapentacyclo[30.2.1.1^15,18.0^6,8.0^23,25]hexatriaconta-1 (35),2,4,9,15,18 (36),19,21,26,32-decaene-14,31-dione]
solubility in pure solvents [7]: insoluble in most pure solvents
